Results: patent publication US20130303509A1, “NAMPT INHIBITORS” (AbbVie Inc., priority 2012, published 2013)
pIC50: −log10 of the molar value.

System: PC3 cells
Experiment: NAMPT Cell Proliferation Assay
Format: cell-based
Conditions: Homo sapiens, PC-3, 120 h, 5 days incubation, cell viability by Cell Titer Glo
Procedure, shortened: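 Five-day CellTiter-Glo viability readout in PC3 cells grown in RPMI/10% heat-inactivated FBS. Compounds added after overnight attachment as a 10-fold dilution series, […]. Percent inhibition fitted to sigmoidal dose-response to derive IC50.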

| pIC50 | SMILES |
| --- | --- |
| 7.16 | O=C(Nc1ccc(OC2CCN(C(=O)c3cccc(C(F)(F)F)c3)CC2)cc1)C1CN(c2ccnnc2)C1 [Example 285, 1-(pyridazin-4-yl)-N-[4-({1-[3-(trifluoromethyl)benzoyl]piperidin-4-yl}oxy)phenyl]azetidine-3-carboxamide] |
| 7.55 | CC(C)(C)C(=O)N1CC(c2ccc(NC(=O)[C@H]3CCN(c4cccnn4)C3)cc2)C1 [Example 789, (3S)-N-{4-[1-(2,2-dimethylpropanoyl)azetidin-3-yl]phenyl}-1-(pyridazin-3-yl)pyrrolidine-3-carboxamide] |
| 8.22 | O=C(Nc1ccc(OC2CCN(C(=O)c3ccccc3F)CC2)cc1)C1CN(c2cccnn2)C1 [Example 228, N-(4-{[1-(2-fluorobenzoyl)piperidin-4-yl]oxy}phenyl)-1-(pyridazin-3-yl)azetidine-3-carboxamide] |
| 6.57 | O=C(Nc1ccc(S(=O)(=O)C2CCN(C(=O)Cc3ccc(F)cc3)CC2)cc1)C1CN(c2cccnn2)C1 [Example 579, N-[4-({1-[(4-fluorophenyl)acetyl]piperidin-4-yl}sulfonyl)phenyl]-1-(pyridazin-3-yl)azetidine-3-carboxamide] |
| 7.13 | O=C(Nc1ccc(OC2CCN(C(=O)c3cccc(F)c3)CC2)cc1)C1CN(c2ccnnc2)C1 [Example 286, N-(4-{[1-(3-fluorobenzoyl)piperidin-4-yl]oxy}phenyl)-1-(pyridazin-4-yl)azetidine-3-carboxamide] |
| 7.13 | O=C(Nc1ccc(C2CN(C(=O)c3cc(F)cc(F)c3)C2)cc1)[C@H]1CCN(c2cccnn2)C1 [Example 790, (3S)-N-{4-[1-(3,5-difluorobenzoyl)azetidin-3-yl]phenyl}-1-(pyridazin-3-yl)pyrrolidine-3-carboxamide] |
| 6.17 | O=C(Nc1ccc(O[C@@H]2CCN(C(=O)Cc3ccc(F)cc3)C2)cc1)C1CN(c2ccnnc2)C1 [Example 449, N-[4-({(3R)-1-[(4-fluorophenyl)acetyl]pyrrolidin-3-yl}oxy)phenyl]-1-(pyridazin-4-yl)azetidine-3-carboxamide] |
| 7.49 | O=C(Nc1ccc(O[C@@H]2CCN(C(=O)C3CCC(F)(F)CC3)C2)cc1)C1CN(c2ccnnc2)C1 [Example 482, N-[4-({(3R)-1-[(4,4-difluorocyclohexyl)carbonyl]pyrrolidin-3-yl}oxy)phenyl]-1-(pyridazin-4-yl)azetidine-3-carboxamide] |
| 9.51 | CC(C)CC(=O)N1CCC(c2ccc(NC(=O)C3CN(c4cccnc4)C3)cc2)CC1 [Example 137, N-{4-[1-(3-methylbutanoyl)piperidin-4-yl]phenyl}-1-(pyridin-3-yl)azetidine-3-carboxamide] |
| 7.10 | O=C(Nc1ccc(OC2CCN(C(=O)c3ccsc3)CC2)cc1)C1CN(c2ccnnc2)C1 [Example 278, 1-(pyridazin-4-yl)-N-(4-{[1-(thiophen-3-ylcarbonyl)piperidin-4-yl]oxy}phenyl)azetidine-3-carboxamide] |
| 7.16 | CC(=O)N1CCC(C(=O)N2CCC(c3ccc(NC(=O)[C@H]4CCN(c5cccnn5)C4)cc3)CC2)CC1 [Example 716, (3S)-N-(4-{1-[(1-acetylpiperidin-4-yl)carbonyl]piperidin-4-yl}phenyl)-1-(pyridazin-3-yl)pyrrolidine-3-carboxamide] |
| < 5.00 | CC(C)C(=O)N1CCC(c2ccc(C(=O)N[C@H]3CCN(c4ccc(Cl)nn4)C3)cc2)CC1 [Example 749, N-[(3S)-1-(6-chloropyridazin-3-yl)pyrrolidin-3-yl]-4-[1-(2-methylpropanoyl)piperidin-4-yl]benzamide] |
| 8.06 | O=C(Nc1ccc(C2CCN(C(=O)Cc3ccc(Cl)cc3)CC2)cc1)C1CN(c2cccnn2)C1 [Example 370, N-(4-{1-[(4-chlorophenyl)acetyl]piperidin-4-yl}phenyl)-1-(pyridazin-3-yl)azetidine-3-carboxamide] |
| 7.80 | O=C(Nc1ccc(OC2CCN(C(=O)Cc3ccc(OC(F)(F)F)cc3)CC2)cc1)C1CN(c2cccnn2)C1 [Example 238, 1-(pyridazin-3-yl)-N-{4-[(1-{[4-(trifluoromethoxy)phenyl]acetyl}piperidin-4-yl)oxy]phenyl}azetidine-3-carboxamide] |
| 7.85 | Cc1ccc(C(=O)N2CCC(Oc3ccc(NC(=O)C4CN(c5cccnc5)C4)cc3)CC2)s1 [Example 62, N-[4-({1-[(5-methylthiophen-2-yl)carbonyl]piperidin-4-yl}oxy)phenyl]-1-(pyridin-3-yl)azetidine-3-carboxamide] |
| 7.16 | O=C(Nc1ccc(C2CCN(CC3CCCCC3)CC2)cc1)C1CN(c2cccnc2)C1 [Example 86, N-{4-[1-(cyclohexylmethyl)piperidin-4-yl]phenyl}-1-(pyridin-3-yl)azetidine-3-carboxamide] |
| 7.15 | O=C(Nc1ccc(OC2CCN(C(=O)c3cccc(Cl)c3)CC2)cc1)C1CN(c2ccnnc2)C1 [Example 295, N-(4-{[1-(3-chlorobenzoyl)piperidin-4-yl]oxy}phenyl)-1-(pyridazin-4-yl)azetidine-3-carboxamide] |

| pIC50 | SMILES |
| --- | --- |
| 7.14 | CC(C)C(=O)N1CC[C@@H](Oc2ccc(NC(=O)C3CN(c4ccnnc4)C3)cc2)C1 [Example 471, N-(4-{[(3R)-1-(2-methylpropanoyl)pyrrolidin-3-yl]oxy}phenyl)-1-(pyridazin-4-yl)azetidine-3-carboxamide] |
| 7.16 | O=C(Nc1ccc(-c2cnn(CC3CC3)c2)cc1)[C@H]1CCN(c2cccnn2)C1 [Example 771, (3S)-N-{4-[1-(cyclopropylmethyl)-1H-pyrazol-4-yl]phenyl}-1-(pyridazin-3-yl)pyrrolidine-3-carboxamide] |
| 9.72 | O=C(Nc1ccc(C2CCN(C(=O)CC3CCCCC3)CC2)cc1)C1CN(c2cccnc2)C1 [Example 119, N-{4-[1-(cyclohexylacetyl)piperidin-4-yl]phenyl}-1-(pyridin-3-yl)azetidine-3-carboxamide] |
| 6.24 | CC(C)Cn1cc(-c2ccc(C(=O)N[C@@H]3CCN(c4cccnc4)C3)s2)cn1 [Example 603, 5-[1-(2-methylpropyl)-1H-pyrazol-4-yl]-N-[(3R)-1-(pyridin-3-yl)pyrrolidin-3-yl]thiophene-2-carboxamide] |
| 8.21 | Cc1ccccc1C(=O)N1CCC(c2ccc(NC(=O)[C@H]3CCN(c4cccnn4)C3)cc2)CC1 [Example 652, (3S)-N-{4-[1-(2-methylbenzoyl)piperidin-4-yl]phenyl}-1-(pyridazin-3-yl)pyrrolidine-3-carboxamide] |
| 7.20 | O=C(Nc1ccc(-c2cnn(CC3CCCCO3)c2)cc1)[C@H]1CCN(c2cccnn2)C1 (stereo partly drawn) [Example 772, (3S)-1-(pyridazin-3-yl)-N-{4-[1-(tetrahydro-2H-pyran-2-ylmethyl)-1H-pyrazol-4-yl]phenyl}pyrrolidine-3-carboxamide] |
| 7.13 | CC(C)(C)C(=O)N1CC[C@H](Oc2ccc(NC(=O)[C@H]3CCN(c4cccnn4)C3)cc2)C1 [Example 827, (3S)—N-(4-{[(3S)-1-(2,2-dimethylpropanoyl)pyrrolidin-3-yl]oxy}phenyl)-1-(pyridazin-3-yl)pyrrolidine-3-carboxamide] |
| 6.73 | O=C(NC1CN(c2cccnn2)C1)c1ccc(C2CCN(C(=O)c3ccc(F)cc3)CC2)s1 [Example 815, 5-[1-(4-fluorobenzoyl)piperidin-4-yl]-N-[1-(pyridazin-3-yl)azetidin-3-yl]thiophene-2-carboxamide] |
| 7.84 | Cc1ncccc1N1CC(C(=O)Nc2ccc(C3CCN(C(=O)c4ccco4)CC3)cc2)C1 [Example 189, N-{4-[1-(furan-2-ylcarbonyl)piperidin-4-yl]phenyl}-1-(2-methylpyridin-3-yl)azetidine-3-carboxamide] |
| 7.17 | Cc1ccsc1C(=O)N1CCC(c2ccc(NC(=O)C3CN(c4cccnc4C)C3)cc2)CC1 [Example 171, 1-(2-methylpyridin-3-yl)-N-(4-{1-[(3-methylthiophen-2-yl)carbonyl]piperidin-4-yl}phenyl)azetidine-3-carboxamide] |
| 6.14 | COCC(=O)N1CC[C@@H](Oc2ccc(NC(=O)C3CN(c4ccnnc4)C3)cc2)C1 [Example 468, N-(4-{[(3R)-1-(methoxyacetyl)pyrrolidin-3-yl]oxy}phenyl)-1-(pyridazin-4-yl)azetidine-3-carboxamide] |
| 7.17 | CC(C)(O)Cn1cc(-c2ccc(NC(=O)[C@H]3CCN(c4cccnn4)C3)cc2)cn1 [Example 757, (3S)-N-{4-[1-(2-hydroxy-2-methylpropyl)-1H-pyrazol-4-yl]phenyl}-1-(pyridazin-3-yl)pyrrolidine-3-carboxamide] |
| 7.69 | Cc1ncccc1N1CC(C(=O)Nc2ccc(C3CCN(C(=O)c4cccs4)CC3)cc2)C1 [Example 187, 1-(2-methylpyridin-3-yl)-N-{4-[1-(thiophen-2-ylcarbonyl)piperidin-4-yl]phenyl}azetidine-3-carboxamide] |
| 7.04 | O=C(Nc1ccc(OC2CCN(C(=O)C3CC3)CC2)cc1)C1CN(c2ccnnc2)C1 [Example 301, N-(4-{[1-(cyclopropylcarbonyl)piperidin-4-yl]oxy}phenyl)-1-(pyridazin-4-yl)azetidine-3-carboxamide] |
| 7.03 | O=C(Nc1ccc(OC2CCN(C(=O)c3cccc(OC(F)(F)F)c3)CC2)cc1)C1CN(c2ccnnc2)C1 [Example 292, 1-(pyridazin-4-yl)-N-[4-({1-[3-(trifluoromethoxy)benzoyl]piperidin-4-yl}oxy)phenyl]azetidine-3-carboxamide] |
| 8.24 | CC[C@H](C)C(=O)N1CCC(Oc2ccc(NC(=O)C3CN(c4cccnn4)C3)cc2)CC1 [Example 212, N-[4-({1-[(2S)-2-methylbutanoyl]piperidin-4-yl}oxy)phenyl]-1-(pyridazin-3-yl)azetidine-3-carboxamide] |

| SMILES | pIC50 |
| --- | --- |
| CC(C)C(=O)N1C2CCC1CC(c1ccc(NC(=O)C3CN(c4cccnn4)C3)cc1)C2 (stereo not shown) [Example 840, N-{4-[8-(2-methylpropanoyl)-8-azabicyclo[3.2.1]oct-3-yl]phenyl}-1-(pyridazin-3-yl)azetidine-3-carboxamide] | 8.55 |
